Reference: PMC4775997, “Imidazopyridazine Inhibitors of Plasmodium falciparum Calcium-Dependent Protein Kinase 1 Also Target Cyclic GMP-Dependent Protein Kinase and Heat Shock Protein 90 To Kill the Parasite at Different Stages of Intracellular Development” (Antimicrobial Agents and Chemotherapy, 2016)
Read-outs that look alike come from different tables or passages of the source.

Columns and labels:
P. falciparum 3D7 [1] = assay: SYBR green I growth assay, wild-type parasites; type: cell-based, Plasmodium falciparum
PfPKG = biological target: T1, PfPKG (Plasmodium falciparum, UniProt Q8I719); assay: Microfluidic fluorescent shift assay of cGMP-dependent protein kinase activity; type: biochemical; settings: read-out: Enzyme inhibition IC50, PKG
T1 construct: plasmids (pTrcHisC) encoding full-length PfPKG and PfPKG T618Q with N-terminal His tags; His tag (N); made in house; host or cells: E. coli Rosetta2(DE3)

PfPKG T618Q = biological target: T2, PfPKG T618Q (Plasmodium falciparum, UniProt Q8I719, T618Q); assay: biochemical; type: biochemical; settings: for IC50: read-out: Enzyme inhibition IC50, PKG T618Q
T2 construct: plasmids (pTrcHisC) encoding full-length PfPKG and PfPKG T618Q with N-terminal His tags; His tag (N); made in house; host or cells: E. coli Rosetta2(DE3)

CDPK1 = CDPK1 (Plasmodium falciparum, UniProt P62344); assay: biochemical; type: biochemical; settings: Table S2; read-out: Enzyme inhibition IC50, CDPK1
3D7 PKG T618Q = assay: microbe, parasite or virus in culture; type: cell-based, Plasmodium falciparum; settings: for EC50: read-out: Parasite inhibition EC50, 3D7 PKG T618Q
P. falciparum 3D7 [2] = assay: Microscopic examination of Giemsa-stained smears (stage of action); settings: for Stage of action (before or after DNA synthesis): Table S1, ring-stage parasites, 10x EC50 for 48 h; for Stage of action: ring stage parasites treated with 10 times the 96-h EC50 for 48 h
[3] = Table S1, single experiment with duplicate samples, or mean of triplicate experiments (SD), read-out: EC50 48 hours
[4] = Table S1, single experiment with duplicate samples, or mean of triplicate experiments (SD), read-out: EC50 96 hours
[5] = Plasmodium falciparum, 3D7, 48 h, read-out: EC50 after treatment for 48 h
[6] = Plasmodium falciparum, 3D7, 96 h, read-out: EC50 96 hours
[7] = Plasmodium falciparum, 3D7, 96 h, read-out: EC50 after treatment for 96 h
[8] = Plasmodium falciparum, 3D7, 96 h, read-out: Parasite inhibition EC50, 3D7
[9] = Plasmodium falciparum, 3D7, 96 h
[10] = Table 2, SYBR green I, 96 h, single experiment, or mean (SD) of duplicate assays

CDPK1, sequence (P62344 whole entry): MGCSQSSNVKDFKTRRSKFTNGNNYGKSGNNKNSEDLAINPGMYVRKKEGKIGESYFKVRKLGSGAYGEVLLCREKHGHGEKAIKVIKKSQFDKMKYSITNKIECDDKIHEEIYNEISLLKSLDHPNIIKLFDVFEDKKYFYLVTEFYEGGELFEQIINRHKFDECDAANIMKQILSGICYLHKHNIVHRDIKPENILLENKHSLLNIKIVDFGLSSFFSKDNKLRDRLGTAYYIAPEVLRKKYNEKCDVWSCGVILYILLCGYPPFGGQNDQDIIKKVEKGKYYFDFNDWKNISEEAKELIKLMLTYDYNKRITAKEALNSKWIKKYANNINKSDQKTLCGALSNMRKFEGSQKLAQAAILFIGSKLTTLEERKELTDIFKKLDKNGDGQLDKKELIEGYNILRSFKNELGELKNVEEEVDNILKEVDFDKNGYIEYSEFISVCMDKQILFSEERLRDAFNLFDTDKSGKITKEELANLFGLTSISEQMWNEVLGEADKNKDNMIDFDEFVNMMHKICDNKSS
T2 sequence (Q8I719 whole entry T618Q): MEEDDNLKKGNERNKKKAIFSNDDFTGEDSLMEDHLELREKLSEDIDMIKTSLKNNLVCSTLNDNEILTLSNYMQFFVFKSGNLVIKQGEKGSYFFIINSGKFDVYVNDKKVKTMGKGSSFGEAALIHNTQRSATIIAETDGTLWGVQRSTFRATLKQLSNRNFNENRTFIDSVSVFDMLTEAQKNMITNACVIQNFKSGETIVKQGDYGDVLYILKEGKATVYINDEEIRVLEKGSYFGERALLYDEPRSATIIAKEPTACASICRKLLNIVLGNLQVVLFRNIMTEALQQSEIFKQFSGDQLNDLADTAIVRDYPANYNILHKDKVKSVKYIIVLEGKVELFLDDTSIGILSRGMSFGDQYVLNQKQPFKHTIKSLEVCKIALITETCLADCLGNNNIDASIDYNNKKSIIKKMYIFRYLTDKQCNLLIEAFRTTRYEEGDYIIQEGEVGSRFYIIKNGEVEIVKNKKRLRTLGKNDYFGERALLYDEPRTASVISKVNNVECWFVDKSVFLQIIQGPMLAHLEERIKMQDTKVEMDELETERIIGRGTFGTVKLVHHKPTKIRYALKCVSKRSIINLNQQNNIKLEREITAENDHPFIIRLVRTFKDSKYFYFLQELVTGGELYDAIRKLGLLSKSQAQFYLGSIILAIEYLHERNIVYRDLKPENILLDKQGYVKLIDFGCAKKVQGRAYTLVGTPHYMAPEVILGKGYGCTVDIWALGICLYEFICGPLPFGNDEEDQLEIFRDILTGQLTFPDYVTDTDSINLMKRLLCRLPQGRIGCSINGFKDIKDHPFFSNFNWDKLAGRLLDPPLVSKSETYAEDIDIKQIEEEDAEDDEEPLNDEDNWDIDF

Row | SMILES | EC50 (P. falciparum 3D7 [1]; [3]) | EC50 (P. falciparum 3D7 [1]; [4]) | IC50 (PfPKG; Table S2) | IC50 (PfPKG T618Q; Table S2) | ratio EC5048:EC5096 (P. falciparum 3D7 [1]; Table S1) | IC50 (CDPK1) | Selectivity PKG T618Q/PKG (PfPKG T618Q; Table S2) | further results
1 | CN1CCC(Nc2ccc3ncc(-c4cc(F)c(Nc5ccccn5)c(F)c4)n3n2)CC1 [Compound 2] | 1.28 µM | 1.04 µM | 0.069 µM | 12.8 µM |  |  |  | 
2 | CN1CCC(Nc2ccc3ncc(-c4ccc(Nc5cnccn5)cc4)n3n2)CC1 [Compound 3] | 0.76 µM | 0.61 µM |  |  | 1.3 |  |  | 
3 | CC(C)CCNc1ccc(-c2cnc3ccc(N4CCC(N(C)C)CC4)nn23)cn1 [Compound 5] | 0.54 µM | 0.39 µM |  |  | 1.4 |  |  | 
4 | CC(C)CCNc1ccc(-c2cnc3ccc(NC4CCN(C)C4)nn23)cn1 (centres unmarked) [Compound 6] | 0.59 µM | 0.42 µM |  |  | 1.4 |  |  | 
5 | CN1CCC(Nc2ccc3ncc(-c4cc(F)c(Nc5ncccc5F)c(F)c4)n3n2)CC1 [Compound 8] | 0.99 µM | 0.66 µM | 0.237 µM | 64.6 µM | 1.5 | 0.017 µM | 272 | 
6 | NC1CCC(Nc2ccc3ncc(-c4ccc(Nc5ncccc5F)cc4)n3n2)CC1 (centres unmarked) [Compound 9] | 0.62 µM | 0.4 µM | 0.048 µM | 16.8 µM |  |  |  | 
7 | c1ccc(-n2cc(-c3cnc4ccc(NC5CCNCC5)nn34)cn2)cc1 [Compound 10] | 0.72 µM | 0.46 µM |  |  | 1.6 |  |  | 
8 | CC(C)CCNc1ccc(-c2cnc3ccc(NC4CCNCC4)nn23)cn1 [Compound 11] | 0.96 µM | 0.6 µM | 0.256 µM | 256 µM | 1.6 | 0.015 µM | 1000 | 
9 | CC(C)CCNc1ccc(-c2cnc3ccc(N4CCC(N)CC4)nn23)cn1 [Compound 12] | 0.41 µM | 0.25 µM |  |  | 1.6 |  |  | 
10 | Fc1cccnc1Nc1ccc(-c2cnc3ccc(NC4CCNCC4)nn23)cc1 [Compound 13] | 1.25 µM | 0.76 µM | 0.162 µM | 3.68 µM | 1.7 | 0.014 µM | 23 | 
11 | CCCCNc1ccc(-c2cnc3ccc(N4CCN(C)CC4)nn23)cn1 [Compound 14] | 2.1 µM | 1.18 µM |  |  | 1.8 |  |  | 
12 | CN1CCC(Nc2ccc3ncc(-c4cnc(Nc5cnccn5)c(F)c4)n3n2)CC1 [Compound 15] | 1.74 µM | 0.96 µM | 0.249 µM | 51.3 µM | 1.9 | 0.02 µM | 206 | 
13 | CN1CCC(Nc2ccc3ncc(-c4ccc(Nc5ccccn5)c(F)c4)n3n2)CC1 [Compound 16] |  |  | 0.088 µM | 10.6 µM |  |  |  | 
14 | CN1CCC(Nc2ccc3ncc(-c4ccc(Nc5ncccc5F)nc4)n3n2)CC1 [Compound 17] | 1.15 µM | 0.58 µM | 0.118 µM | 12.1 µM |  |  |  | 
15 | CN1CCC(Nc2ccc3ncc(-c4ccc(Nc5ncccc5F)cc4)n3n2)CC1 [Compound 18] | 1.22 µM | 0.6 µM | 0.404 µM | 15.7 µM |  |  |  | 
16 | CCCCNc1ccc(-c2cnc3ccc(N4CCC(N)CC4)nn23)cn1 [Compound 19] | 0.57 µM | 0.26 µM |  |  | 2.2 |  |  | 

Row | SMILES | EC50 (P. falciparum 3D7 [1]; [3]) | EC50 (P. falciparum 3D7 [1]; [4]) | IC50 (PfPKG; Table S2) | IC50 (PfPKG T618Q; Table S2) | ratio EC5048:EC5096 (P. falciparum 3D7 [1]; Table S1) | IC50 (CDPK1) | Selectivity PKG T618Q/PKG (PfPKG T618Q; Table S2) | further results
17 | Fc1cc(-c2cnc3ccc(NC4CCNCC4)nn23)ccc1Nc1ccccn1 [Compound 21] | 1.63 µM | 0.69 µM | 0.087 µM | 3.77 µM | 2.4 | 0.01 µM | 44 | 
18 | CC(C)CCNc1ncc(-c2cnc3ccc(NC4CCN(C)CC4)nn23)cn1 [Compound 23] | 2.49 µM | 0.99 µM | 0.16 µM | 4.76 µM | 2.5 | 0.014 µM | 30 | 
19 | Fc1cccnc1Nc1ccc(-c2cnc3ccc(NC4CCNCC4)nn23)cn1 [Compound 24] | 2.45 µM | 0.71 µM | 0.062 µM | 1.25 µM | 3.4 | 0.011 µM | 20 | 
20 | Fc1cc(-c2cnc3ccc(NC4CCNCC4)nn23)cnc1Nc1ccccn1 [Compound 25] | 1.96 µM | 0.54 µM | 0.054 µM | 9.93 µM | 3.6 | 0.013 µM | 182 | 
21 | c1ccc(Nc2ncc(-c3cnc4ccc(NC5CCNCC5)nn34)cn2)nc1 [Compound 26] | 0.83 µM | 0.2 µM | 0.02 µM | 3.28 µM | 4.2 | 0.009 µM | 161 | 
22 | Fc1cc(-c2cnc3ccc(NC4CCNCC4)nn23)cnc1Nc1cnccn1 [Compound 27] | 4.3 µM | 0.84 µM | 0.101 µM | 10 µM | 5.1 | 0.017 µM | 99 | 
23 | CC(C)CCNc1ncc(-c2cnc3ccc(NC4CCNCC4)nn23)cn1 [Compound 29] | 3.46 µM | 0.64 µM | 0.093 µM | 0.88 µM | 5.4 | 0.018 µM | 10 | 
24 | Fc1cccnc1Nc1ncc(-c2cnc3ccc(NCCN4CCNCC4)nn23)cn1 [Compound 30] | 0.31 µM | 0.05 µM |  |  | 6.0 |  |  | 
25 | CN1CCC(Nc2ccc3ncc(-c4cnc(Nc5ncccc5F)nc4)n3n2)CC1 [Compound 33] |  | 0.03 µM | 0.005 µM | 10 µM |  |  |  | 
26 | c1nc(N2CCCCC2)ncc1-c1cnc2ccc(NC3CCNCC3)nn12 [Compound 34] |  | 1.18 µM |  |  |  |  |  | 
27 | NC1CCC(Nc2ccc3ncc(-c4cnc(Nc5ncccc5F)nc4)n3n2)CC1 (centres unmarked) [Compound 36] |  |  |  |  |  |  |  | EC50 (P. falciparum 3D7 [1]; [5]): > 1000 µM; EC50 (P. falciparum 3D7 [1]; [6]): 0.02 µM; EC50 (P. falciparum 3D7 [1]; [7]): 0.023 µM; EC50 (P. falciparum 3D7 [1]; [8]): 0.034 µM; EC50 after treatment for 48 h (P. falciparum 3D7 [1]; SYBR green I, 48 h incubation, mean of three independent experiments (SD)): not able to be determined with any accuracy; EC50 (3D7 PKG T618Q; [9]): 0.901 µM; Stage of action (before or after DNA synthesis) (P. falciparum 3D7 [2]): late schizont; Stage of action (P. falciparum 3D7 [2]): Late schizont
28 | CC(C)CCNc1ncc(-c2cnc3ccc(NC4CCC(N)CC4)nn23)cn1 (centres unmarked) [Compound 37] |  | 0.65 µM |  |  |  |  |  | 
29 | Fc1cccnc1Nc1ncc(-c2cnc3ccc(NC4CCC(N5CCCC5)CC4)nn23)cn1 (centres unmarked) [Compound 39] |  |  |  |  |  |  |  | EC50 (P. falciparum 3D7 [1]; SYBR green I, 48 h incubation, mean of three independent experiments (SD), read-out: EC50 after treatment for 48 h): > 1000 µM; EC50 (P. falciparum 3D7 [1]; SYBR green I, 96 h incubation, mean of three independent experiments (SD), read-out: EC50 after treatment for 96 h): 0.02 µM; EC50 (P. falciparum 3D7 [1]; Table 2, SYBR green I, 96 h, single experiment, or mean (SD) of duplicate assays, read-out: Parasite inhibition EC50, 3D7): 0.034 µM; IC50 (PfPKG; Table 2, ATP at Km 20 μM): 0.002 µM; IC50 (PfPKG T618Q; Table 2, ATP at Km 90 μM): 25.5 µM; EC50 (3D7 PKG T618Q; [10]): 0.982 µM; Decrease in potency against the PKG T618Q variant parasite (3D7 PKG T618Q; versus 3D7 WT, 96 h SYBR green I): 29 fold; Stage of action (before or after DNA synthesis) (P. falciparum 3D7 [2]): late schizont; Stage of action (P. falciparum 3D7 [2]): Late schizont
30 | c1cnc(Nc2ncc(-c3cnc4ccc(NC5CCNCC5)nn34)cn2)cn1 [Compound 40] |  | 1.23 µM |  |  |  |  |  | 
31 | Fc1cccnc1Nc1ncc(-c2cnc3ccc(NC4CCC(N5CCOCC5)CC4)nn23)cn1 (centres unmarked) [Compound 41] |  |  |  |  |  |  |  | EC50 (P. falciparum 3D7 [1]; [5]): > 1000 µM; EC50 (P. falciparum 3D7 [1]; [6]): 0.04 µM; EC50 (P. falciparum 3D7 [1]; [7]): 0.037 µM; EC50 (P. falciparum 3D7 [1]; [8]): 0.042 µM; EC50 (3D7 PKG T618Q; [9]): 0.923 µM; Stage of action (before or after DNA synthesis) (P. falciparum 3D7 [2]): late schizont; Developmental arrest seen in smears (P. falciparum 3D7 [2]; parasites about 21 h after invasion, 48 h at 10 times the EC50 determined by FACS (compound C 0.3 μM, compound D 4 μM)): arrested prior to merozoite egress; Stage of action (P. falciparum 3D7 [2]): Late schizont
32 | CC(C)CCNc1ccc(-c2cnc3ccc(NC4CCN(C)CC4)nn23)cn1 [Compound 43] |  |  |  |  |  |  |  | EC50 (P. falciparum 3D7 [1]; Table S2, 96 h, read-out: Parasite inhibition EC50, 3D7): 0.079 µM; EC50 (3D7 PKG T618Q; [10]): 0.093 µM
